For orientation: EC50 means the concentration at which the effect is half-maximal. Read a low EC50 as higher potency in that assay.

This is an account of results in paper PMC4070716 (Journal of Medicinal Chemistry, 2014).

“Also recorded” adds a separate entry of the source. Read-outs that look alike come from different tables or passages of the source. Marks after values point to notes of the source that are not given here. A value given as a limit tells only on which side of the number the result lay.

In test [1] the target is T1, human κ opioid receptor (Homo sapiens, UniProt P41145). The experiment in a line: Inhibition of U69,593-stimulated [35S]GTPγS binding. As to conditions: for fold more potent antagonist than N-methyl counterpart, κ receptor: ratio of Ke values (a vs b analogue). It counts as biochemical. In general terms: GTPγS is a poorly hydrolysed GTP analogue; its binding reports G protein activation.
T1 sequence (P41145 whole entry): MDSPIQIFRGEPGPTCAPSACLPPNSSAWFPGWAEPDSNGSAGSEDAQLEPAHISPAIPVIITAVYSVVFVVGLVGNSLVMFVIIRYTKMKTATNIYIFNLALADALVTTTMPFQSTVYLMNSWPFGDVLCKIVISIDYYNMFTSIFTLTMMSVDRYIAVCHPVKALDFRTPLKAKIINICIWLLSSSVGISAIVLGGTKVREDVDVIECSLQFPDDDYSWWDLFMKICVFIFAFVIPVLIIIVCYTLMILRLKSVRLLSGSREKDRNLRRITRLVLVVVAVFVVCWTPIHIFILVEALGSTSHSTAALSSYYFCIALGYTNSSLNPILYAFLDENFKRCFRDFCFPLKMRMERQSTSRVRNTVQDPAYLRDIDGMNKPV

Test [2] deals with T2, human δ opioid receptor (Homo sapiens, UniProt P41143). Kind of test: [35S]GTPγS binding assay, intrinsic. The class given is biochemical.
T2 sequence (P41143 whole entry): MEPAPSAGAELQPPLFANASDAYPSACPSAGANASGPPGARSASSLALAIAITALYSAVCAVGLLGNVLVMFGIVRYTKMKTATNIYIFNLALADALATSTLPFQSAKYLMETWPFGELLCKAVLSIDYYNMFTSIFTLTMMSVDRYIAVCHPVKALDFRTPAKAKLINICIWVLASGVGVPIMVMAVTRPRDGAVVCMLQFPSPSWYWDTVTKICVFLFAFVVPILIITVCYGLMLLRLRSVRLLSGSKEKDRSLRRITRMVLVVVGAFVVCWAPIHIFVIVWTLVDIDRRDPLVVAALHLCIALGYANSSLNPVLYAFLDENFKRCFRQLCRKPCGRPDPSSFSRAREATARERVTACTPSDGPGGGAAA
Test [3] deals with T3, human μ opioid receptor (Homo sapiens, UniProt P35372). Kind of test: [35S]GTPγS binding assay, intrinsic. It counts as biochemical.
T3 sequence (P35372 whole entry): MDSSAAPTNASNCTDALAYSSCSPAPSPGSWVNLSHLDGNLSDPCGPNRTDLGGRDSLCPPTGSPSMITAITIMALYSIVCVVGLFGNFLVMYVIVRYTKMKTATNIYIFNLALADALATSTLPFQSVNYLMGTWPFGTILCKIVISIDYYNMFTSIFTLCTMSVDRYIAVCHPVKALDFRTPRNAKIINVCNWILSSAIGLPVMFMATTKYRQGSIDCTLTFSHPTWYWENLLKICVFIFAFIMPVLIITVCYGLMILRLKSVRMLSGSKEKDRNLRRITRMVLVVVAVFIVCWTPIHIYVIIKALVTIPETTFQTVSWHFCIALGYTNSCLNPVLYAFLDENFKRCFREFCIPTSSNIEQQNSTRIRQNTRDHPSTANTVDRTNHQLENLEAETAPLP
The target in test [4] is T3, human μ opioid receptor. Kind of test: Inhibition of DAMGO-stimulated [35S]GTPγS binding. As to conditions: for fold more potent antagonist than N-methyl counterpart, μ receptor: ratio of Ke values (a vs b analogue). It counts as biochemical.
The target of test [5] is T2, human δ opioid receptor. The experiment in a line: Inhibition of DPDPE-stimulated [35S]GTPγS binding. The class given is biochemical. To be noted: for Ke (nM) δ, DPDPE: cloned human δ receptor in CHO cells, mean ± SE, at least three experiments.
Test [6] has as its target T1, human κ opioid receptor. The experiment in a line: [35S]GTPγS binding assay, intrinsic. It counts as biochemical.
The subject of another test is μ receptor. As to conditions: mouse writhing test, μ antagonism; cited from earlier work.
In test [7] the target is T3, human μ opioid receptor. To be noted: cloned human μ receptor; data taken from ref 15; cited from earlier work.
The target in test [8] is T2, human δ opioid receptor. To be noted: cloned human δ receptor; data taken from ref 15; cited from earlier work.
The subject of test [9] is opioid receptor. To be noted: cited from earlier work.
Test [10] concerns opioid receptor. As to conditions: cited from earlier work. This is another data set of the same source.
In the next test the test system is κ receptor. To be noted: mouse writhing test, κ antagonism; cited from earlier work. (In general: An intraperitoneal irritant provokes the stretching counted in writhing tests.)

As for `CC1CN(CCCc2ccccc2)CCC1c1cccc(O)c1` (stereo not drawn) [Compound 5b, 3-[3-Methyl-1-(3-phenylpropyl)piperidin-4-yl]phenol], at human κ opioid receptor [1], the Kb was 16.5 ± 5 nM and the “fold more potent antagonist than N-methyl counterpart, κ receptor” value is listed as 79 fold. In addition, the “agonist activity at 10 μM, δ receptor” value at human δ opioid receptor [2] is reported as “no agonist efficacy”. Besides, the “agonist activity at 10 μM, μ receptor” value at human μ opioid receptor [3] is reported as “no agonist efficacy”. Besides, at human μ opioid receptor [4], the Kb was 11.9 ± 2 nM and the “fold more potent antagonist than N-methyl counterpart, μ receptor” value amounted to 105 fold. For the same compound, the Kb at human δ opioid receptor [5] amounted to 46 ± 18 nM. Moreover, the “agonist activity at 10 μM, κ receptor” value at human κ opioid receptor [6] was “no agonist efficacy”.
On human κ opioid receptor [1], `C[C@H]1CN(CCCc2ccccc2)CC[C@@]1(C)c1cccc(O)c1` [Compound 2b, 3-[(3R,4R)-3,4-Dimethyl-1-(3-phenylpropyl)piperidin-4-yl]phenol] came in with a Kb of 0.88 ± 0.17 nM. The “AD50, antagonist of morphine-induced antinociception” value in the test on μ receptor is on record as 0.28 mg/kg. The “Ke (nM) μ, DAMGO” value on human μ opioid receptor [7] is 0.1 ± 0.02 ^b nM. At human δ opioid receptor [8], the “Ke (nM) δ, DPDPE” value was 0.9 ± 0.32 ^b nM.
In the case of `CN1CCC(C)(c2cccc(O)c2)CC1` [Compound 6a, 3-(1,4-Dimethylpiperidin-4-yl)phenol], the values for the Kb at human κ opioid receptor [1] and at human μ opioid receptor [4] were 477 ± 150 nM and 974 ± 230 nM, respectively. Further, the concentration giving a half-maximal response (EC50) on human δ opioid receptor [2] was found to be 8300 nM. Also, the “Ke (nM) δ, DPDPE” value at human δ opioid receptor [5] was “agonist ^c”.
Turning to `Oc1cccc(C2CCN(CCCc3ccccc3)CC2)c1` [Compound 7b, 3-[1-(3-Phenylpropyl)piperidin-4-yl]phenol], the Kb came to 5.8 ± 2 nM on human κ opioid receptor [1], 75.6 ± 21 nM on human μ opioid receptor [4] and 418 ± 120 nM at human δ opioid receptor [5]. Further, the “agonist activity at 10 μM, δ receptor” value at human δ opioid receptor [2] is “no agonist efficacy”. Also, the “agonist activity at 10 μM, μ receptor” value at human μ opioid receptor [3] was “no agonist efficacy”. The “agonist activity at 10 μM, κ receptor” value at human κ opioid receptor [6] is recorded as “no agonist efficacy”.
As for `CN1CCN(c2cccc(O)c2)CC1` [Compound 8a, 3-(4-Methylpiperazin-1-yl)phenol], the “agonist activity at 10 μM, δ receptor” value at human δ opioid receptor [2] is given as “no opioid agonist efficacy”. In addition, at human μ opioid receptor [3], the “agonist activity at 10 μM, μ receptor” value is reported as “no opioid agonist efficacy”. Also, the Kb on human μ opioid receptor [4] was found to be 4300 ± 1700 nM; at human δ opioid receptor [5], 1600 ± 480 nM. Moreover, the “agonist activity at 10 μM, κ receptor” value at human κ opioid receptor [6] is on record as “no opioid agonist efficacy”.
For the compound `C[C@H]1CN(CCCc2ccccc2)CCN1c1cccc(O)c1` [Compound 4b, 3-[(2S)-2-Methyl-4-(3-phenylpropyl)piperazin-1-yl]phenol], on human δ opioid receptor [2], the “agonist activity at 10 μM, δ receptor” value was “no opioid agonist efficacy”. Besides, the “agonist activity at 10 μM, μ receptor” value on human μ opioid receptor [3] was “no opioid agonist efficacy”. Moreover, the “agonist activity at 10 μM, κ receptor” value on human κ opioid receptor [6] is recorded as “no opioid agonist efficacy”.
`C[C@H]1CN(C)CC[C@@]1(C)c1cccc(O)c1` [Compound 2a, 3-[(3R,4R)-1,3,4-Trimethylpiperidin-4-yl]phenol] returned a Kb on human κ opioid receptor [1] of 134 ± 27.1 nM. The “agonist activity at 10 μM, δ receptor” value at human δ opioid receptor [2] was “no opioid agonist efficacy”. In addition, the “opioid receptor agonist activity in the mouse writhing test” value in the test with opioid receptor [9] was “did not have any opioid receptor agonist activity”. The “agonist activity at 10 μM, μ receptor” value on human μ opioid receptor [3] is on record as “no opioid agonist efficacy”. In addition, the “AD50, antagonist of morphine-induced antinociception” value in the test with μ receptor was 0.74 mg/kg. Also, the “opioid receptor agonist activity in the rat tail heat analgesic test” value with opioid receptor [10] is given as “did not have any opioid receptor agonist activity”. The “AD50, antagonist of U50,488-induced antinociception” value in the test on κ receptor is on record as over 5.0 mg/kg. Further, at human κ opioid receptor [6], the “agonist activity at 10 μM, κ receptor” value was “no opioid agonist efficacy”. On human μ opioid receptor [7], the “Ke (nM) μ, DAMGO” value was 29.3 ± 3.4 ^b nM. The “Ke (nM) δ, DPDPE” value on human δ opioid receptor [8] is 681 ± 241 ^b nM.
`CN1CCC(c2cccc(O)c2)CC1` [Compound 7a, 3-(1-Methylpiperidin-4-yl)phenol] displayed a Kb at human κ opioid receptor [1] of 2700 ± 1300 nM. The “agonist activity at 10 μM, δ receptor” value on human δ opioid receptor [2] was “no agonist activity”. The “agonist activity at 10 μM, μ receptor” value at human μ opioid receptor [3] was “no agonist activity”. On human μ opioid receptor [4] (cloned human μ receptor in CHO cells, mean ± SE, at least three experiments), the “Ke (nM) μ, DAMGO” value is “inactive; also recorded: no antagonist properties; also recorded: IA ^d”. The “Ke (nM) δ, DPDPE” value on human δ opioid receptor [5] was “inactive; also recorded: no antagonist properties; also recorded: IA ^d”. The “agonist activity at 10 μM, κ receptor” value at human κ opioid receptor [6] is on record as “no agonist activity”.
On human κ opioid receptor [1], `Oc1cccc(N2CCN(CCCc3ccccc3)CC2)c1` [Compound 8b, 3-[4-(3-Phenylpropyl)piperazin-1-yl]phenol] showed a Kb of 36.8 ± 16.8 nM. Also, the “agonist activity at 10 μM, δ receptor” value on human δ opioid receptor [2] is given as “no opioid agonist efficacy”. For the same compound, the “agonist activity at 10 μM, μ receptor” value at human μ opioid receptor [3] is recorded as “no opioid agonist efficacy”. Moreover, the “fold more potent antagonist than N-methyl counterpart, μ receptor” value on human μ opioid receptor [4] is on record as 507 fold. In addition, the “fold more potent antagonist than N-methyl counterpart, δ receptor” value at human δ opioid receptor [5] (ratio of Ke values (a vs b analogue)) came out at 47 fold. Moreover, the “agonist activity at 10 μM, κ receptor” value at human κ opioid receptor [6] is “no opioid agonist efficacy”.
Consider `CC1(c2cccc(O)c2)CCN(CCCc2ccccc2)CC1` [Compound 6b, 3-[4-Methyl-1-(3-phenylpropyl)piperidin-4-yl]phenol], for which the Kb at human κ opioid receptor [1] came out at 21.3 ± 9 nM; at human μ opioid receptor [4], 5.5 ± 0.59 nM; at human δ opioid receptor [5] it was 178 ± 47 nM. Besides, the “fold more potent antagonist than N-methyl counterpart, κ receptor” value at human κ opioid receptor [1] stood at 22 fold. Further, at human δ opioid receptor [2], the “agonist activity at 10 μM, δ receptor” value is “no agonist efficacy”. In addition, the “agonist activity at 10 μM, μ receptor” value on human μ opioid receptor [3] is “no agonist efficacy”. For the same compound, the “fold more potent antagonist than N-methyl counterpart, μ receptor” value on human μ opioid receptor [4] was 177 fold. Also, the “agonist activity at 10 μM, κ receptor” value at human κ opioid receptor [6] is reported as “no agonist efficacy”.
Take `CC1CN(C)CCC1c1cccc(O)c1` (stereo not drawn) [Compound 5a, 3-(1,3-Dimethylpiperidin-4-yl)phenol]: the Kb on human κ opioid receptor [1] worked out at 1310 ± 447 nM; on human μ opioid receptor [4], 1250 ± 423 nM.
Take `C[C@H]1CN(C)CCN1c1cccc(O)c1` [Compound 4a, 3-[(2S)-2,4-Dimethylpiperazin-1-yl]phenol]: the “agonist activity at 10 μM, δ receptor” value on human δ opioid receptor [2] was “no opioid agonist efficacy”. Also, on human μ opioid receptor [3], the “agonist activity at 10 μM, μ receptor” value is “no opioid agonist efficacy”. The “Ke (nM) δ, DPDPE” value at human δ opioid receptor [5] is “no antagonism; also recorded: IA ^d”. For the same compound, the “agonist activity at 10 μM, κ receptor” value on human κ opioid receptor [6] is on record as “no opioid agonist efficacy”.
